Data on 1 molecule can be found in ChEMBL document CHEMBL3045481, “Insecticide-induced resurgence of the whitebacked planthopper Sogatella furcifera (Horvath) (Hemiptera: Delphacidae) on rice varieties with different levels of resistance” (Crop Prot, 2011).

Active and inactive are the calls of the source. No cut-off for these calls is given here. Bounds are passed on as bounds.

In assay [1] the test system is Sogatella furcifera. As to the kind of experiment: Insecticidal activity against Sogatella furcifera on insect-sensitive rice plant ARC6248 assessed as growth index at 0.0018% concentration (reference value: 2.38%). In kind it is functional.
The test system of assay [2] is Sogatella furcifera. As to the kind of experiment: Insecticidal activity against Sogatella furcifera on insect-resistanct rice plant PR116 assessed as growth index at 0.0018% concentration (reference value: 6.02%). It counts as functional.
Assay [3] has as its system Sogatella furcifera. Nature of the assay: Insecticidal activity against Sogatella furcifera on insect-resistanct rice plant PR116 assessed as reproduction at 0.0018% concentration. It counts as functional, organism-based.
Assay [4] concerns Sogatella furcifera. As to the kind of experiment: Insecticidal activity against adult Sogatella furcifera on insect-sensitive rice plant ARC6248 assessed as high mortality at 0.0035% concentration. It counts as functional, organism-based.
Assay [5] deals with Sogatella furcifera. As to the kind of experiment: Insecticidal activity against adult Sogatella furcifera on insect-resistanct rice plant PR116 assessed as high mortality at 0.0035% concentration. In kind it is functional, organism-based.
Assay [6] deals with Sogatella furcifera. As to the kind of experiment: Insecticidal activity against Sogatella furcifera on insect-sensitive rice plant ARC6248 assessed as resurgence ratio at 0.100% concentration. In kind it is functional.
Assay [7] relates to Sogatella furcifera. Nature of the assay: Insecticidal activity against Sogatella furcifera on insect-resistanct rice plant PR116 assessed as resurgence ratio at 0.100% concentration. In kind it is functional.
For assay [8], the system named is Sogatella furcifera. Nature of the assay: Insecticidal activity against Sogatella furcifera on insect-sensitive rice plant ARC6248 assessed as reproduction at 0.0018% concentration. In kind it is functional, organism-based.
Assay [9] deals with Sogatella furcifera. As to the kind of experiment: Insecticidal activity against Sogatella furcifera on insect-sensitive rice plant ARC6248 assessed as nymphal survival at 0.0018% concentration (reference value: 34.17%). It counts as functional.
The test system of assay [10] is Sogatella furcifera. As to the kind of experiment: Insecticidal activity against Sogatella furcifera on insect-resistanct rice plant PR116 assessed as nymphal survival at 0.0018% concentration (reference value: 70.28%). In kind it is functional.
Assay [11] has as its system Sogatella furcifera. Nature of the assay: Insecticidal activity against Sogatella furcifera on insect-sensitive rice plant ARC6248 assessed as nymphal duration at 0.0018% concentration (reference value: 14.48 days). In kind it is functional.
Assay [12] has as its system Sogatella furcifera. As to the kind of experiment: Insecticidal activity against Sogatella furcifera on insect-resistanct rice plant PR116 assessed as nymphal duration at 0.0018% concentration (reference value: 11.75 days). In kind it is functional.

On to `O=[N+]([O-])/N=C1\NCCN1Cc1ccc(Cl)nc1` [IMIDACLOPRID], for which the results for the “growth inhibition (GI)” value in the assay on Sogatella furcifera [1] and in the assay with Sogatella furcifera [2] were 2.48% and 5.91%, respectively. In addition, the inhibition result in the assay with Sogatella furcifera [3] and in the assay with Sogatella furcifera [8] was “inactive” in each case. The inhibition result in the assay with Sogatella furcifera [4] and in the assay on Sogatella furcifera [5] was “Active” throughout. Further, the Ratio in the assay on Sogatella furcifera [6] and in the assay on Sogatella furcifera [7] was less than 1 throughout. Further, the Survival with Sogatella furcifera [9] is 35.56%; with Sogatella furcifera [10], 69.72%. For the same molecule, the Time in the assay on Sogatella furcifera [11] was determined as 14.46 days; in the assay with Sogatella furcifera [12], 11.85 days.
